Key:
[1] = biological target: T1, Programmed cell death protein 1/Programmed cell death 1 ligand 1 (Homo sapiens, UniProt Q15116+Q9NZQ7); assay: Inhibition of PD-1/PDL1 interaction (unknown origin) by HTRF assay; assay type: protein-complex assay
[2] = tested on: Jurkat; assay: Cytotoxicity against human Jurkat T cells assessed as reduction in cell viability measured after 72 hrs by CCK-8 assay; assay type: cell-based; settings: for Activity: human, jurkat, time 72 hrs; for EC50: Homo sapiens, Jurkat
[3] = biological target: T1, Programmed cell death protein 1/Programmed cell death 1 ligand 1; assay: Inhibition of PD1/PDL1 protein-protein interaction in human PBMC-derived CD3-positive T cells co-cultured with human Hep3B cells expressing human PDL1/OS-8 assessed as increase in IFNgamma secretion measured after 72 hrs; settings: dose 0.31-20 µM
[4] = biological target: T1, Programmed cell death protein 1/Programmed cell death 1 ligand 1; assay: Inhibition of PD1/PDL1 protein-protein interaction in human PBMC-derived CD3-positive T cells co-cultured with human Hep3B cells expressing human PDL1/OS-8 assessed as increase in IFNgamma secretion at 20 uM measured after 72 hrs; set-up: scale not given: the % may be the effect or the level left
[5] = biological target: T1, Programmed cell death protein 1/Programmed cell death 1 ligand 1; assay: Inhibition of PD1/PDL1 protein-protein interaction in human PBMC-derived CD3-positive T cells co-cultured with human Hep3B cells expressing human PDL1/OS-8 assessed as increase in IFNgamma secretion at 5 uM measured after 72 hrs relative to BMS-1

T1 sequence (Q15116 whole entry): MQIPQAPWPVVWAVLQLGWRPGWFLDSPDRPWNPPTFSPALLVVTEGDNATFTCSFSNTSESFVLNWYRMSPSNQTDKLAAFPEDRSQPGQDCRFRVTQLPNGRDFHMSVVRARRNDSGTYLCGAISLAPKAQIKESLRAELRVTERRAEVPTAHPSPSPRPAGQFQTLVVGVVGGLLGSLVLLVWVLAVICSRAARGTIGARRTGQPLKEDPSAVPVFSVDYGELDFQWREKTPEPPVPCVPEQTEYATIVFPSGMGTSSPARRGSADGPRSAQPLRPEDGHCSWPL
T1 sequence (Q9NZQ7 whole entry): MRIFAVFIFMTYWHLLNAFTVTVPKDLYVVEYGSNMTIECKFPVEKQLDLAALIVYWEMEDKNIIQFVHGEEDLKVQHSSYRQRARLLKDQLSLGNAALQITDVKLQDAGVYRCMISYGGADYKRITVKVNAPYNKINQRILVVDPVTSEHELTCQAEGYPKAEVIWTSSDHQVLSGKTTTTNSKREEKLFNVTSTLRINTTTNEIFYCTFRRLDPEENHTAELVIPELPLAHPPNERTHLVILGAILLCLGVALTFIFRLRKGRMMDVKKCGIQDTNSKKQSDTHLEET

Row | Compound | IC50 [1] [nM] | other results
1 | O=C(c1ccc(CNCCO)c(Cl)c1)N1CCc2c(-c3ccccc3)cccc21 | 353 | –
2 | Cc1c(-c2ccccc2)cccc1N1Cc2cc(CNCCO)ccc2C1=O | 7290 | –
3 | CC(=O)NCCNCc1cccc(C(=O)N2CCc3c(-c4ccccc4)cccc32)c1 | 745 | –
4 | N#Cc1cccc(COc2cc(C(=O)N3CCc4c(-c5ccccc5)cccc43)ccc2CN2CCCC[C@H]2C(=O)O)c1 | 1330 | –
5 | COc1cc(C(=O)N2CCc3c(-c4ccccc4)cccc32)ccc1CN1CCC[C@H]1CO | 620 | –
6 | N#Cc1cccc(COc2cc(C(=O)N3CCc4c(-c5ccccc5)cccc43)ccc2CN[C@H](CO)C(=O)O)c1 | 3280 | –
7 | COc1cc(C(=O)N2CCc3c(-c4ccccc4)cccc32)cc(OC)c1CNCCNC(C)=O | 7260 | –
8 | O=C(c1ccc(CNCCO)c(O)c1)N1CCc2c(-c3ccccc3)cccc21 | 304 | –
9 | CC(=O)NCCNCc1ccc2c(c1)CN(c1cccc(-c3ccccc3)c1C)C2=O | > 10000 | –
10 | Cc1cc(C(=O)N2CCc3c(-c4ccccc4)cccc32)ccc1CNCCO | 212 | Activity [2]: Toxic
11 | CC(=O)NCCNCc1ccc2c(c1)C(=O)N(c1cccc(-c3ccccc3)c1C)C2 | > 10000 | –
12 | CC(=O)NCCNCc1ccc(C(=O)N2CCc3c(-c4ccccc4)cccc32)c(Cl)c1 | > 10000 | –
13 | CC(=O)NCCNCc1ccc(C(=O)N2CCc3c(-c4ccccc4)cccc32)cc1 | 622 | –
14 | COc1cc(C(=O)N2CCc3c(-c4ccccc4)cccc32)ccc1CNCCNC(C)=O | 220 | EC50 [2]: 39800 nM; inhibition [3]: Dose-dependent effect
15 | COCCNCc1ccc(C(=O)N2CCc3c(-c4ccccc4)cccc32)cc1OC | 350 | –
16 | COc1cc(C(=O)N2CCc3c(-c4ccccc4)cccc32)ccc1CN[C@H](CO)C(=O)O | 278 | –

Row | Compound | IC50 [1] [nM] | other results
17 | CC(=O)NCCNCc1ccc(C(=O)N2CCc3c(-c4ccccc4)cccc32)cc1C | 457 | –
18 | O=C(c1ccc(CNCCO)cc1Cl)N1CCc2c(-c3ccccc3)cccc21 | > 10000 | –
19 | N#Cc1cccc(COc2cc(C(=O)N3CCc4c(-c5ccccc5)cccc43)ccc2CNCCO)c1 | 572 | –
20 | COc1cc(C(=O)N2CCc3c(-c4ccccc4)cccc32)cc(OC)c1CNCCO | 4770 | –
21 | CC(=O)NCCNCc1ccc(C(=O)N2CCc3c(-c4ccccc4)cccc32)cc1Cl | 589 | –
22 | O=C(c1cccc(CNCCO)c1)N1CCc2c(-c3ccccc3)cccc21 | 344 | –
23 | CC(=O)NCCNCc1ccc(C(=O)N2CCc3c(-c4ccccc4)cccc32)cc1O | 602 | –
24 | COc1cc(C(=O)N2CCc3c(-c4ccccc4)cccc32)ccc1CNCCO | – | Activity [4]: 610%; EC50 [2]: 44700 nM; inhibition [3]: Dose-dependent effect; fold change (FC) [5]: 3.21
25 | COc1cc(C(=O)N2CCc3c(-c4ccc5c(c4)OCCO5)cccc32)ccc1CNCCNC(C)=O | 416 | –
26 | O=C(c1ccc(CNCCO)cc1)N1CCc2c(-c3ccccc3)cccc21 | 192 | Activity [2]: Toxic
27 | COc1cc(C(=O)N2CCc3c(-c4ccccc4)cccc32)ccc1CN1CCCC[C@@H]1C(=O)O | 1060 | –
28 | Cc1c(-c2ccccc2)cccc1N1Cc2ccc(CNCCO)cc2C1=O | 9380 | –
29 | COc1cc(C(=O)N2CCc3c(-c4ccc5c(c4)OCCO5)cccc32)ccc1CNCCO | 225 | Activity [2]: Toxic
30 | COc1cc(C(=O)N2CCc3c(-c4ccccc4)cccc32)ccc1CN1CCC[C@H]1C(=O)O | 1890 | –
31 | CC(=O)NCCNCc1ccc(C(=O)N2CCc3c(-c4ccccc4)cccc32)cc1OCc1cccc(C#N)c1 | 1060 | –

— ChEMBL document CHEMBL4680115, “Discovery of the programmed cell death-1/programmed cell death-ligand 1 interaction inhibitors bearing an indoline scaffold” (Eur J Med Chem, 2020)
